Among the data in patent US8008301B2, “Histamine H3 receptor agents, preparation and therapeutic uses” (Eli Lilly and Company, priority 2004, dated 2011) are Ki values, retold here.

In general, Ki refers to the equilibrium dissociation constant of an inhibitor or competing ligand from its target.

In this experiment the target is T1, H3R membranes (H3R8-expressing HEK293 cell line) (Homo sapiens, UniProt Q9Y5N1).
T1 construct: expressed in transfected cells; membranes
The experiment in a line: [35S] GTPγ[S] binding assay, antagonist activity in the presence of agonist R(-)alpha methylhistamine. The experiment is classed as biochemical. The note with it: inhibition of [35S]GTPγS binding to H3R membranes in presence of agonist. As to the method:
Membranes isolated as described in (Preparation of Histamine Receptor Subtype Membranes) were used in a [35S]GTPχS functional assay. Binding of [35S]GTPχS to membranes indicates agonist activity. Compounds of the invention of Formula I or Formula II were tested for their ability to inhibit binding in the presence of agonists. Alternately, the same transfected cell lines were used for a cAMP assay wherein H3R agonists inhibited forskolin-activated synthesis of cAMP. Compounds of Formula I or Formula II were tested for their ability to permit forskolin-stimulated cAMP synthesis in the presence of agonist.
Antagonist activity of selected compounds was tested for inhibition of [35S] GTP γ [S] binding to H3R membranes in the presence of agonists. Assays were run at room temperature in 20 mM HEPES, 100 mM NaCl, 5 mM MgCl2 and 10 uM GDP at pH 7.4 in a final volume of 200 ul in 96-well Costar plates. Membranes isolated from H3R8-expressing HEK293 cell line (20 ug/well) and GDP were added to each well in a volume of 50 μl assay buffer. Antagonist was then added to the wells in a volume of 50 μl assay buffer and incubated for 15 minutes at room temperature. […] Plates were counted in Wallac Trilux 1450 Microbeta scintillation counter for 1 minute. […]
For orientation: GTPγS resists hydrolysis and so accumulates on activated G proteins.

T1 sequence (Q9Y5N1 whole entry): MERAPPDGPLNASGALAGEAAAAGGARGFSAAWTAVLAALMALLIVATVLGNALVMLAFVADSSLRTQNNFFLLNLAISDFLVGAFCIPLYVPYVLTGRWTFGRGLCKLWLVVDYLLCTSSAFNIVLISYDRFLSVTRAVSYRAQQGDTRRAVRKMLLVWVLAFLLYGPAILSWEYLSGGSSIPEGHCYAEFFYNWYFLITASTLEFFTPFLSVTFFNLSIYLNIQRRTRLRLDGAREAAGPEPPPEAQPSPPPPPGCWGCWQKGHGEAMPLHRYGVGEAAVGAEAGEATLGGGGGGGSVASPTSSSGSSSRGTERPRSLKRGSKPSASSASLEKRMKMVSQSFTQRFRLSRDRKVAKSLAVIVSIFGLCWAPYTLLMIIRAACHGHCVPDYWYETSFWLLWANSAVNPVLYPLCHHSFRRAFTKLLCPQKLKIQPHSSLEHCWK

`O=C(c1ccc(-c2ccccn2)cc1)N1CCC[C@H]1CN1CCCC1`: the Ki is 49 nM.
